# ± gives the uncertainty stated by the source.
# System: ozone
# Assay: apparent second-order rate constant for reaction with ozone (kapp,O3) (M-1 s-1); higher = faster oxidation by ozone
# Details: pH 7; temperature: 22 C; OH radical scavenger: tBuOH 80 mM; phosphate 4 mM
# Summary of the method: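 Apparent second-order rate constants for reaction with ozone came from multicompound competition kinetics, averaged (± SD) over qualifying competitors. Target/competitor mixtures (10 μg L–1 each before ozone addition) in 4 mM phosphate buffer, pH 7, with 80 mM tert-butanol were dosed with ozone solution (compound:O3 molar ratios 0.0025–100) at 22 ± 1 °C, in triplicate on three days. HPLC-HRMS/MS peak-area abatement (10–90%) was regressed against competitors of known constant, requiring ≥10 points, R2 >0.9 and slope 0.1–10.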
row,SMILES,apparent second-order rate constant
1,CC(CN1c2ccccc2CCc2ccccc21)C[N+](C)(C)[O-] (centres undefined) [Trimipramine-N-oxide],4.8e+06 ± 300000
2,CC(CN(C)C)CN1c2ccccc2CCc2ccccc21 (centres undefined) [Trimipramine],2e+06 ± 400000
3,COc1ccc(C(C[N+](C)(C)[O-])C2(O)CCCCC2)cc1 (centres undefined) [Venlafaxine-N-oxide],168 ± 8.7
4,COc1ccc(C(CN(C)C)C2(O)CCCCC2)cc1 (centres undefined) [Venlafaxine],3440 ± 260
5,COc1ccc(CCN(C)CCCC(C#N)(c2ccc(OC)c(OC)c2)C(C)C)cc1OC (centres undefined) [Verapamil],64000 ± 14000
6,Cc1ccc2nc(-c3ccc(C(=O)O)cc3)c(CC(=O)N(C)C)n2c1 [Zolpidem carboxylic acid],6.3e+06 ± 400000
7,Cc1ccc(-c2nc3ccc(C)cn3c2CC(=O)N(C)C)cc1 [Zolpidem],1.28e+07 ± 900000
8,CC(C)c1c(C(=O)Nc2ccccc2O)c(-c2ccccc2)c(-c2ccc(F)cc2)n1CCC(O)CC(O)CC(=O)O (centres undefined) [ortho-Hydroxyatorvastatin],1.8e+08 ± 4e+07
9,CC(C)c1c(C(=O)Nc2ccc(O)cc2)c(-c2ccccc2)c(-c2ccc(F)cc2)n1CCC(O)CC(O)CC(=O)O (centres undefined) [para-Hydroxyatorvastatin],6.6e+07 ± 1.4e+07
